The target of the test is T1, NQO1 (Homo sapiens, UniProt P15559).
T1 construct: endogenous in cells; host or cells: OC3-IV2 (human oral squamous cell carcinoma), cytosolic fraction / lysate supernatant
Nature of the test: NQO1 enzymatic activity assay (substrate reduction with NADH and WST1). Format: biochemical. To be noted: cytosolic fractions of OC3-IV2 cells; isoplumbagin 5 μM and 10 μM, menadione 1X and 2X. How it is done: FIG. 4 proves that isoplumbagin is a substrate of NQO1. The cytosolic fractions of OC3-IV2 cells were used for the NQO1 enzymatic activity assay. The NQO1 enzyme activity was calculated by measuring the simultaneous reduction of menadione or isoplumbagin with cofactor NADH and WST1 (a highly sensitive tetrazolium reagent) which leads to increased absorbance at 450 nm. NQO1 activity assay kit (#ab184867) was purchased from Abcam (Cambridge, Mass., USA). OC3-IV2 cells were lysed with 1X extraction buffer containing 1 mM phenylmethylsulfonyl fluoride (PMSF) for 15 min on ice, and then centrifuged at 17,000×g at 4° C. for 20 min. The supernatant was collected and then the protein concentration of each sample was determined by BCA assays (Santa Cruz Biotechnology). Diluted sample and reaction buffer were added into 96-wells plate containing menadione (1X and 2X) or different concentrations of isoplumbagin (5 μM and 10 μM) with cofactor NADH and WST1. The absorbance of reduced WST1 was measured at 450 nm wavelengths by a spectrophotometer. Data from three independent experiments are presented as mean ±SEM (*P<0.05 compared with no substrate, paired Student's t-test).

From patent US20210113492A1, “METHOD FOR INHIBITING PROLIFERATION AND METASTASIS OF CANCER CELLS BY USING NAPHTHOQUINONE DERIVATIVE” (National Tsing Hua University, priority 2019, published 2021) come the findings set out here.

T1 sequence (P15559 whole entry): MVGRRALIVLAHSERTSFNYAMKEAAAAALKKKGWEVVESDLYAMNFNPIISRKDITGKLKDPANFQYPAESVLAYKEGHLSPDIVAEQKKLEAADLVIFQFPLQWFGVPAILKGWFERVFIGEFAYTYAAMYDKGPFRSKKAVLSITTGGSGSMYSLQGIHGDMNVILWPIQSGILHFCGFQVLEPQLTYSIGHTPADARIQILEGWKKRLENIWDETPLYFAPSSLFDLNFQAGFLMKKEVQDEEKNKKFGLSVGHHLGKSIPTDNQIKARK

Take `CC1=CC(=O)c2ccccc2C1=O` [menadione, reference compound]: the “substrate of NQO1 (reduction with NADH and WST1, absorbance at 450 nm)” value was “substrates of NQO1”.
